Laboratory results as given in patent US20240366612A1, “COMPOUNDS AND METHODS FOR MODULATING NUCLEIC ACID SPLICING” (REMIX THERAPEUTICS INC., priority 2021, published 2024).
pIC50: −log10 of the molar value. Structures can show the parent of a compound that is named as a salt.

What was measured:
Format in all cases: cell-based
MYB mRNA = assay: Splicing RT-qPCR assay, MYB canonical (CJ) and alternative (AJ) junction mRNA; settings: Homo sapiens, A673 or K562 cells, 24 hours treatment; for pIC50: decrease in CJ mRNA; for AC50: increase in AJ mRNA
Procedure, shortened: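 Compound-treated A673 or K562 cells (11-point 3-fold dilution, top dose 10 uM final, DMSO ≤0.25%) were incubated for 24 h at 37° C. Lysates underwent one-step RT-qPCR for canonical and alternative-exon junction isoforms. Normalization used PPIA for A673 and GAPDH or GUSB for K562.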

HTT CJ mRNA = assay: Gene panel canonical junction qPCR assay, HTT; settings: Homo sapiens, larger gene panel, read-out: HTT IC50 (decrease in CJ mRNA levels)
Procedure, shortened: (§1)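 A673 or K562 cells treated 24 h with 11-point 3-fold dilutions (top 10 µM, ≤0.25% DMSO) at 37 °C. Canonical exon-junction mRNA measured by probe-based RT-qPCR, normalized to GAPDH, GUSB or PPIA and DMSO (2^−ΔΔCt), converted to percent response over a fixed ΔCt window; IC50 from 4-parameter fit.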

SMN2 CJ mRNA = assay: Gene panel canonical junction qPCR assay, SMN2; settings: Homo sapiens, larger gene panel, read-out: SMN2 IC50 (decrease in CJ mRNA levels)
Procedure, shortened: as §1

SMILES | pIC50 (MYB mRNA) | pIC50 (HTT CJ mRNA) | pIC50 (SMN2 CJ mRNA) | AC50 (MYB mRNA) [µM]
Cc1cc(-c2cc3ncn(C4CCNCC4)c(=O)c3s2)cc2cn(C)nc12 [Compound 236, 6-(2,7-dimethyl-2H-indazol-5-yl)-3-(piperidin-4-yl)thieno[3,2-d]pyrimidin-4(3H)-one] | 6.00 to 7.00 | > 7.00 | > 7.00 | 0.1 to 1
Cc1cc(-c2cc3ncn(C4CCN(C)CC4)c(=O)c3s2)cc2cn(C)nc12 [Compound 237, 6-(2,7-dimethyl-2H-indazol-5-yl)-3-(1-methylpiperidin-4-yl)thieno[3,2-d]pyrimidin-4(3H)-one] | 6.00 to 7.00 | 6.00 to 7.00 | > 7.00 | < 0.1
Cc1cn2nc(-c3cc4ncn(C5CCNCC5)c(=O)c4s3)cc(C)c2n1 [Compound 238, 6-(2,8-dimethylimidazo[1,2-b]pyridazin-6-yl)-3-(piperidin-4-yl)thieno[3,2-d]pyrimidin-4(3H)-one] | 6.00 to 7.00 | 6.00 to 7.00 | > 7.00 | 0.1 to 1
Cc1cn2nc(-c3cc4ncn(C5CCN(C)CC5)c(=O)c4s3)cc(C)c2n1 [Compound 239, 6-(2,8-dimethylimidazo[1,2-b]pyridazin-6-yl)-3-(1-methylpiperidin-4-yl)thieno[3,2-d]pyrimidin-4(3H)-one] | 5.00 to 6.00 | 5.00 to 6.00 | > 7.00 | 0.1 to 1
Cc1cn2cc(-c3nc4sc(C5CCNCC5)cc4c(=O)[nH]3)cc(F)c2n1 [Compound 250, 2-(8-fluoro-2-methylimidazo[1,2-a]pyridin-6-yl)-6-(piperidin-4-yl)thieno[2,3-d]pyrimidin-4(3H)-one] | 6.00 to 7.00 | 6.00 to 7.00 | 6.00 to 7.00 | 0.1 to 1
Cc1nc(-c2nc3ncn(C4CCNCC4)c(=O)c3s2)cc2cn(C)nc12 [Compound 251, 2-(2,7-dimethyl-2H-pyrazolo[3,4-c]pyridin-5-yl)-6-(piperidin-4-yl)thiazolo[4,5-d]pyrimidin-7(6H)-one] | 5.00 to 6.00 | 5.00 to 6.00 | 6.00 to 7.00 | > 10
Cn1cc2cc(-c3nc4ncn(C5CCNCC5)c(=O)c4s3)c(O)cc2n1 [Compound 253, 2-(6-hydroxy-2-methyl-2H-indazol-5-yl)-6-(piperidin-4-yl)thiazolo[4,5-d]pyrimidin-7(6H)-one, hydrochloride] | 5.00 to 6.00 | 5.00 to 6.00 | 6.00 to 7.00 | 1 to 10
Cc1cn2cc(-c3nc4sc(C5CCN(C)CC5)cc4c(=O)[nH]3)cc(F)c2n1 [Compound 256, 2-(8-fluoro-2-methylimidazo[1,2-a]pyridin-6-yl)-6-(1-methylpiperidin-4-yl)thieno[2,3-d]pyrimidin-4(3H)-one] | < 5.00 | < 5.00 | 5.00 to 6.00 | > 10
Cn1cc2cc(-c3cc4ncn(C5CCNCC5)c(=O)c4s3)cc(F)c2n1 [Compound 257] | 5.00 to 6.00 | 5.00 to 6.00 | 5.00 to 6.00 | 1 to 10
Cn1cc2cc(-c3cc4ncn(C5CCNCC5)c(=O)c4s3)c(F)cc2n1 [Compound 258] | 6.00 to 7.00 | 6.00 to 7.00 | > 7.00 | 0.1 to 1
Cn1cc2cc(-c3cc4ncn(C5CCNCC5)c(=O)c4s3)cc(C#N)c2n1 [Compound 259] | 6.00 to 7.00 | 5.00 to 6.00 | > 7.00 | 0.1 to 1
COc1cc(-c2cc3ncn(C4CCNCC4)c(=O)c3s2)cnn1 [Compound 260] | 5.00 to 6.00 | 5.00 to 6.00 | 5.00 to 6.00 | 1 to 10
Cc1cn2cc(-c3cc4ncn(C5CCNCC5)c(=O)c4s3)cc(C)c2n1 [Compound 261] | 6.00 to 7.00 | 6.00 to 7.00 | > 7.00 | 0.1 to 1
Cc1cn2nc(-c3cc4ncn(C5CCNCC5)c(=O)c4s3)cc2c(C)n1 [Compound 262] | 6.00 to 7.00 | 6.00 to 7.00 | 6.00 to 7.00 | 0.1 to 1
COc1cc(-c2cc3ncn(C4CCNCC4)c(=O)c3s2)ccn1 [Compound 263] | 5.00 to 6.00 | 5.00 to 6.00 | 5.00 to 6.00 | 1 to 10
Cc1cn2cc(-c3cc4ncn(C5CCNCC5)c(=O)c4s3)ncc2n1 [Compound 264] | 5.00 to 6.00 | 5.00 to 6.00 | 6.00 to 7.00 | 1 to 10
Cc1cn2cc(-c3cc4ncn(C5CCN(C)CC5)c(=O)c4s3)cc(F)c2n1 [Compound 265, 6-{8-fluoro-2-methylimidazo[1,2-a]pyridin-6-yl}-3-(1-methylpiperidin-4-yl)thieno[3,2-d]pyrimidin-4-one] | 6.00 to 7.00 | 6.00 to 7.00 | > 7.00 | 0.1 to 1
Cc1cn2nc(-c3nc4sc(N5CCNCC5)nc4c(=O)[nH]3)cc2c(C)n1 [Compound 267] | 6.00 to 7.00 | 6.00 to 7.00 | 6.00 to 7.00 | 0.1 to 1
Cc1cn2nc(-c3nc4sc(N5CCN(C)CC5)nc4c(=O)[nH]3)cc2c(C)n1 [Compound 268] | < 5.00 | < 5.00 | 6.00 to 7.00 | 1 to 10

The next lines start with results.

pIC50 (MYB mRNA) | pIC50 (HTT CJ mRNA) | pIC50 (SMN2 CJ mRNA) | SMILES | AC50 (MYB mRNA) [µM]
6.00 to 7.00 | 6.00 to 7.00 | > 7.00 | Cc1cn2cc(-c3cc4ncn(N5CCNCC5)c(=O)c4s3)cc(F)c2n1 [Compound 269, 6-{8-fluoro-2-methylimidazo[1,2-a]pyridin-6-yl}-3-(piperazin-1-yl)thieno[3,2-d]pyrimidin-4-one] | 0.1 to 1
6.00 to 7.00 | 6.00 to 7.00 | 6.00 to 7.00 | Cc1cn2cc(-c3cc4ncn(C5CCNC5)c(=O)c4s3)cc(F)c2n1 (centres unmarked) [Compound 270, 6-{8-fluoro-2-methylimidazo[1,2-a]pyridin-6-yl}-3-(pyrrolidin-3-yl)thieno[3,2-d]pyrimidin-4-one] | 0.1 to 1
6.00 to 7.00 | 5.00 to 6.00 | > 7.00 | Cc1nc(-c2cc3ncn(C4CCNCC4)c(=O)c3s2)cc2cn(C)nc12 [Compound 271] | 1 to 10
< 5.00 | < 5.00 | 5.00 to 6.00 | Cc1cn2cc(-c3cc4ncn(C5CCNCC5(F)F)c(=O)c4s3)cc(F)c2n1 (centres unmarked) [Compound 274, 3-(3,3-difluoropiperidin-4-yl)-6-{8-fluoro-2-methylimidazo[1,2-a]pyridin-6-yl}thieno[3,2-d]pyrimidin-4-one] | > 10
6.00 to 7.00 | 6.00 to 7.00 | > 7.00 | Cc1cn2cc(-c3cc4ncn(C5CCCNCC5)c(=O)c4s3)cc(F)c2n1 (centres unmarked) [Compound 275, 3-(azepan-4-yl)-6-{8-fluoro-2-methylimidazo[1,2-a]pyridin-6-yl}thieno[3,2-d]pyrimidin-4-one] | 0.1 to 1
6.00 to 7.00 | 6.00 to 7.00 | > 7.00 | Cc1cn2cc(-c3cc4ncn(C5=CCNCC5)c(=O)c4s3)cc(F)c2n1 [Compound 276, 6-{8-fluoro-2-methylimidazo[1,2-a]pyridin-6-yl}-3-(1,2,3,6-tetrahydropyridin-4-yl)thieno[3,2-d]pyrimidin-4-one] | 0.1 to 1
< 5.00 | < 5.00 | < 5.00 | Cc1cn2cc(-c3cc4ncn(C5CNCCC5=O)c(=O)c4s3)cc(F)c2n1 (centres unmarked) [Compound 279, 3-(6-{8-fluoro-2-methylimidazo[1,2-a]pyridin-6-yl}-4-oxothieno [3,2-d]pyrimidin-3-yl)piperidin-4-one] | > 10
< 5.00 | < 5.00 | < 5.00 | Cc1cn2cc(N3CCc4cc(C5CCNCC5)sc4C3=O)cc(F)c2n1 [Compound 800, 6-[8-fluoro-2-methylimidazo[1,2-a]pyridin-6-yl]-2-(piperidin-4-yl)-4H,5H-thieno[2,3-c]pyridin-7-one] | > 10
< 5.00 | < 5.00 | < 5.00 | Cc1cn2cc(-n3ccc4cc(C5CCNCC5)sc4c3=O)cc(F)c2n1 [Compound 801, 6-[8-fluoro-2-methylimidazo[1,2-a]pyridin-6-yl]-2-(piperidin-4-yl)thieno[2,3-c]pyridin-7-one] | > 10
6.00 to 7.00 | 6.00 to 7.00 | > 7.00 | Cc1cc(-c2cc3cnn(C4CCNCC4)c(=O)c3s2)cc2cn(C)nc12 [Compound 802, 2-(2,7-dimethyl-2H-indazol-5-yl)-6-(piperidin-4-yl)thieno[2,3-d]pyridazin-7(6H)-one] | 0.1 to 1
6.00 to 7.00 | 6.00 to 7.00 | 6.00 to 7.00 | Cc1cn2cc(-c3cc4ccn(C5CCNCC5)c(=O)c4s3)cc(F)c2n1 [Compound 804, 2-(8-fluoro-2-methylimidazo[1,2-a]pyridin-6-yl)-6-(piperidin-4-yl)thieno[2,3-c]pyridin-7(6H)-one] | 0.1 to 1
6.00 to 7.00 | 6.00 to 7.00 | > 7.00 | Cc1cc(-c2cc3ccn(C4CCNCC4)c(=O)c3s2)cc2cn(C)nc12 [Compound 805, 2-(2,7-dimethyl-2H-indazol-5-yl)-6-(piperidin-4-yl)thieno[2,3-c]pyridin-7(6H)-one] | 0.1 to 1
6.00 to 7.00 | 6.00 to 7.00 | 6.00 to 7.00 | Cc1cn2nc(-c3cc4ccn(C5CCNCC5)c(=O)c4s3)cc(C)c2n1 [Compound 806, 2-(2,8-dimethylimidazo[1,2-b]pyridazin-6-yl)-6-(piperidin-4-yl)thieno[2,3-c]pyridin-7(6H)-one] | 0.1 to 1
